Results reported in patent publication US11000485B2, “Substituted hydroxystilbenes as AhR and Nrf2 modulators and their therapeutic applications” (Resolvex Pharmaceuticals Inc., priority 2017, dated 2021).

Assays:
THP1 cells = assay: Cell viability (MTS); type: cell-based; settings: 48 hours
Protocol: (§1) Cells were cultured in RPMI-1640 containing 10% FBS (Jurkat and THP-1) or DMEM containing 10% FBS (A549 and MDA-MB-435). On Day 1, 1-5×10^4 cells per well in 100 μL of the cell culture medium containing 0.5% FBS were seeded into a 96-well flat bottom plate. On Day 2, the test compounds were added to the culture at different concentrations in triplicates. The controls include triplicates of no compound treatment and cell culture medium without cells. The cells were incubated at 5% CO2, 37° C. for 48 hours. On Day 4, MTS reagent was added to each well and incubated at 37° C. for 4 hours. The absorbance was read at 490 nm. The percentage of inhibition was calculated using the formula: [1-(experiment reading-background reading)/(negative control reading-background reading)]×100.

MDA-MB-435 cells [1] = assay: Cell viability (MTS); type: cell-based; settings: 48 hours
Protocol: as §1

Jurkat cells [2] = assay: Cell viability (MTS); type: cell-based; settings: 48 hours
Protocol: as §1

[3] = biological target: T1, recombinant human PDE4B1 enzyme (Homo sapiens, UniProt Q07343); assay: PDE4B1 radiometric enzyme assay; type: biochemical; settings: 1 μM cAMP
T1 construct: host or cells: baculoviral system
T1 sequence (Q07343 whole entry): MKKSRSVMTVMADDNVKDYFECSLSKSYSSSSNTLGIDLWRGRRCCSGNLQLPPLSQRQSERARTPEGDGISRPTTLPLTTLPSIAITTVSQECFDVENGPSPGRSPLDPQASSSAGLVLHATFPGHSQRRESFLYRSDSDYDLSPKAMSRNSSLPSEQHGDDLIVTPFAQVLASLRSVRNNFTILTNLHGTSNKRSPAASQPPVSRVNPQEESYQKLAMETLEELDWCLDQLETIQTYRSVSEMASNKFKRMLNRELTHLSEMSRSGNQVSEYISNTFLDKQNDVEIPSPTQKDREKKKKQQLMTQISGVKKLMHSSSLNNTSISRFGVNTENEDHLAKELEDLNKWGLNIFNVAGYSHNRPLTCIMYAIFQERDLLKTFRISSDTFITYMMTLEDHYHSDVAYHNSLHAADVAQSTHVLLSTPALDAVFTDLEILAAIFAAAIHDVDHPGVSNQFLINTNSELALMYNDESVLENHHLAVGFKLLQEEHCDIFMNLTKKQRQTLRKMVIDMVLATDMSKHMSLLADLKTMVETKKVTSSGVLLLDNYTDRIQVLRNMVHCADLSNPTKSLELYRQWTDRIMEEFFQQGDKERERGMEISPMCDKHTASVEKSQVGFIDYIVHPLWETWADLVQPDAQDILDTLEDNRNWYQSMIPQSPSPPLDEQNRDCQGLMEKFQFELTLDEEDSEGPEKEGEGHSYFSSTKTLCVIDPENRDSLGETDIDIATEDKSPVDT
Protocol: Assays were performed using recombinant human PDE4B1 enzyme expressed in a baculoviral system. […] The reactions were performed at 1 μM of cAMP. The test articles were each tested at 0.2 μM and 20 μM in triplicates.

MDA-MB-435 cells [4] = assay: Cell proliferation ([3H]-thymidine); type: cell-based; settings: 48 hours, read-out: Anti-proliferation IC50, MDA-MB-435
Protocol: (§2) Cells were cultured in RPMI-1640 containing 10% FBS (Jurkat) or DMEM containing 10% FBS (MDA-MB-435). On Day 1, 1×10^4 cells were seeded into one well of a 96-well white ISOPLATE™ with 0.5% FBS. The cells were cultured at 5% CO2, 37° C. overnight. On Day 2, the diluted test compounds were added into each well in a total volume of 100 μL of cell culture medium. For each cell line were set up three wells containing cells and only diluted DMSO as a negative (vehicle) control, and three wells without cells but containing the same volume and type of cell culture medium as background control. The cells were incubated at 5% CO2, 37° C. for 24 hours. On Day 3, 1 μL of [^3H]-thymidine was added into each well and incubation at 5% CO2, 37° C. was continued for another 24 hours. On Day 4, 30 μL of 50% TCA was added into each well and was incubated at 4° C. for 4 hours. Plates were washed with ddH2O four times and then air dried for 30 minutes followed by the addition of 100 μL of scintillation fluid into each well. The radioactivity was read using MICROBETA TRILUX™. The percentage of inhibition was calculated using the formula [1-(experiment reading-background reading)/(negative control reading-background reading)]×100.

Jurkat cells [5] = assay: Cell proliferation ([3H]-thymidine); type: cell-based; settings: 48 hours, read-out: Anti-proliferation IC50, Jurkat
Protocol: as §2

IC50 (THP1 cells) [nM] | IC50 (MDA-MB-435 cells [1]) [nM] | IC50 (Jurkat cells [2]) [nM] | Inhibitory activity on PDE4B1 enzyme ([3]; 0.2 μM compound) | IC50 (MDA-MB-435 cells [4]) [nM] | IC50 (Jurkat cells [5]) [nM] | SMILES | Inhibitory activity on PDE4B1 enzyme ([3]; 20 μM compound)
2400 | 1270 | 3280 | – | – | – | N#Cc1ccc(/C=C/c2ccc(C3CC3)c(O)c2)cc1C#N [Compound 18] | –
– | – | – | + (“+” is 15-30% inhibition) | – | – | Oc1cc(/C=C/c2ccc(F)cc2)ccc1C1CCCC1 [Compound 20] | +++ (“+++” is greater than 50% inhibition)
6930 | 1950 | 3730 | – | 1770 | 690 | Oc1cc(/C=C/c2ccc(F)cc2F)ccc1C1CCCC1 [Compound 21] | –
2460 | 1720 | 2960 | – | – | – | Oc1cc(/C=C/c2c(F)cccc2F)ccc1C1CCCC1 [Compound 22] | –
7180 | 390 | 2660 | – | – | – | Oc1cc(/C=C/c2ccc(F)cc2)ccc1C1CCCCC1 [Compound 24] | –
– | – | – | + (“+” is 15-30% inhibition) | – | – | Oc1cc(/C=C/c2ccc(F)cc2)ccc1C1CCCCCC1 [Compound 27] | +++ (“+++” is greater than 50% inhibition)
